Assay results taken from PubChem BioAssay AID328 (DTP/NCI, 2004).
“And” between values parts separate entries of the source, which are not always exact repeats. Equal values may be shown once. Inconclusive results and toxic doses are left out. Rule for the calls: active = survival T/C of 150% or more; inactive = T/C below 125% in these data.

Test system: BDF1 mice, P388 leukemia ip, median survival T/C
Assay: NCI In Vivo Anticancer Drug Screen. Data for tumor model P388 Leukemia (intraperitoneal) in B6D2F1 (BDF1) mice
Conditions: endpoint: median survival time, higher = longer survival
Method: The antitumor activity of compounds was measured in mice bearing transplantable tumors. Survival or tumor size were measured and the results are expressed as the measurement made in the treated group (T) divided by the measurement made in the vehicle treated control group (C). The tumor model used in this assay is P388 Leukemia (intraperitoneal) in B6D2F1 (BDF1) mice

[1] = dose: 12.5 mg/kg/injection, schedule: Q04DX003 (ip), vehicle: saline with Tween-80
[2] = dose: 25.0 mg/kg/injection, schedule: Q04DX003 (ip), vehicle: saline with Tween-80
[3] = dose: 25.0 mg/kg/injection, schedule: Q01DX009 (ip), vehicle: saline
[4] = dose: 50.0 mg/kg/injection, schedule: Q01DX009 (ip), vehicle: saline
[5] = dose: 50.0 mg/kg/injection, schedule: Q04DX003 (ip), vehicle: saline
[6] = dose: 100.0 mg/kg/injection, schedule: Q04DX003 (ip), vehicle: saline
[7] = dose: 25.0 mg/kg/injection, schedule: Q04DX003 (ip), vehicle: saline
[8] = dose: 100.0 mg/kg/injection, schedule: Q01DX009 (ip), vehicle: saline
[9] = dose: 50.0 mg/kg/injection, schedule: Q01DX009 (ip), vehicle: saline with Tween-80
[10] = dose: 100.0 mg/kg/injection, schedule: Q01DX009 (ip), vehicle: saline with Tween-80
[11] = dose: 50.0 mg/kg/injection, schedule: Q04DX003 (ip), vehicle: saline with Tween-80
[12] = dose: 200.0 mg/kg/injection, schedule: Q01DX009 (ip), vehicle: saline with Tween-80

Measured: T/C

C1CCCC(NC2=NCCO2)CCC1
inactive: dose: 6.25 mg/kg/injection, schedule: Q04DX003 (ip), vehicle: saline with Tween-80 100 % of control | [1] 109 % of control | [2] 95 % of control

CCCCCCCCCCCCCCCC[N+]1(CC)CCCC1
inactive: dose: 0.19 mg/kg/injection, schedule: Q01DX009 (ip), vehicle: saline 120 % of control | dose: 0.39 mg/kg/injection, schedule: Q01DX009 (ip), vehicle: saline 104 % of control

Cn1c(=O)c2nc(-c3ccc(Cl)c(Cl)c3)c(-c3ccc(Cl)c(Cl)c3)nc2n(C)c1=O
inactive: dose: 3.13 mg/kg/injection, schedule: Q01DX001 (ip), vehicle: saline with Tween-80 100 % of control | dose: 6.25 mg/kg/injection, schedule: Q01DX001 (ip), vehicle: saline with Tween-80 101 % of control | dose: 12.5 mg/kg/injection, schedule: Q01DX001 (ip), vehicle: saline with Tween-80 99 % of control | dose: 25.0 mg/kg/injection, schedule: Q01DX001 (ip), vehicle: saline with Tween-80 90 % of control and 101 % of control | dose: 50.0 mg/kg/injection, schedule: Q01DX001 (ip), vehicle: saline with Tween-80 107 % of control | dose: 100.0 mg/kg/injection, schedule: Q01DX001 (ip), vehicle: saline with Tween-80 87 % of control | dose: 400.0 mg/kg/injection, schedule: Q01DX001 (ip), vehicle: saline with Tween-80 96 % of control

ClC1OCCOC1Cl (stereo unspecified)
inactive: [3] 96 % of control | [4] 100 % of control | [5] 105 % of control | [6] 110 % of control

COc1ccc(/C=C(C(=O)O)/C(=C/c2ccc(OC)c(OC)c2)C(=O)O)cc1OC
inactive: dose: 100.0 mg/kg/injection, schedule: Q01DX009 (ip), vehicle: Klucel (hydroxypropylcellulose) (HPC) 100 % of control | dose: 200.0 mg/kg/injection, schedule: Q01DX009 (ip), vehicle: Klucel (hydroxypropylcellulose) (HPC) 109 % of control | dose: 200.0 mg/kg/injection, schedule: Q04DX003 (ip), vehicle: Klucel (hydroxypropylcellulose) (HPC) 95 % of control | dose: 400.0 mg/kg/injection, schedule: Q01DX009 (ip), vehicle: Klucel (hydroxypropylcellulose) (HPC) 95 % of control | dose: 400.0 mg/kg/injection, schedule: Q04DX003 (ip), vehicle: Klucel (hydroxypropylcellulose) (HPC) 112 % of control

O.[Co].[Co].[NH2-].[NH2-].[NH2-].[NH2-].[NH2-].[NH2-].[NH2-].[NH2-].[NH2-]
inactive: dose: 0.5 mg/kg/injection, schedule: Q01DX009 (ip), vehicle: water 100 % of control | dose: 1.5 mg/kg/injection, schedule: Q04DX003 (ip), vehicle: water 121 % of control | dose: 2.0 mg/kg/injection, schedule: Q01DX009 (ip), vehicle: water 95 % of control | dose: 3.0 mg/kg/injection, schedule: Q04DX003 (ip), vehicle: water 95 % of control | dose: 4.0 mg/kg/injection, schedule: Q01DX009 (ip), vehicle: water 100 % of control

CCCCCCCCCCCCN(C)C
inactive: dose: 12.5 mg/kg/injection, schedule: Q04DX003 (ip), vehicle: saline 104 % of control | [7] 109 % of control | [5] 118 % of control

N#CCOC(=O)C1(NC(=O)c2ccccc2)CC1c1ccccc1 (stereo unspecified)
inactive: dose: 25.0 mg/kg/injection, schedule: Q01DX005 (ip), vehicle: saline with Tween-80 95 % of control | dose: 50.0 mg/kg/injection, schedule: Q01DX005 (ip), vehicle: saline with Tween-80 90 % of control | dose: 100.0 mg/kg/injection, schedule: Q01DX005 (ip), vehicle: saline with Tween-80 92 % of control

CCOC(=O)Nc1cc(NC(C)CCCN(CC)CC)c2ncc(-c3ccccc3)nc2n1 (stereo unspecified) (tested in a mixture with another compound)
inactive: [3] 100 % of control | [7] 104 % of control | [4] 100 % of control | [5] 100 % of control | [8] 104 % of control | [6] 104 % of control

CCOC(=O)N1CCN(CCCCCOc2ccc(CC(C)(C)C)cc2Cl)CC1
inactive: [9] 121 % of control | [10] 118 % of control

CCN(CC)Cc1nc2nc(Cl)c(Cl)nc2[nH]1
inactive: dose: 5.0 mg/kg/injection, schedule: Q01DX009 (ip), vehicle: saline with Tween-80 112 % of control | dose: 10.0 mg/kg/injection, schedule: Q01DX009 (ip), vehicle: saline with Tween-80 114 % of control | [1] 114 % of control | dose: 20.0 mg/kg/injection, schedule: Q01DX009 (ip), vehicle: saline with Tween-80 98 % of control | [2] 100 % of control and 114 % of control | [11] 88 % of control and 100 % of control and 104 % of control

Nc1cccc2c1C(=O)C=CC2=O
inactive: dose: 1.15 mg/kg/injection, schedule: Q01DX009 (ip), vehicle: saline 112 % of control | dose: 2.3 mg/kg/injection, schedule: Q01DX009 (ip), vehicle: saline 108 % of control | dose: 3.25 mg/kg/injection, schedule: Q04DX003 (ip), vehicle: saline 121 % of control | dose: 4.6 mg/kg/injection, schedule: Q01DX009 (ip), vehicle: saline 108 % of control

NC(=O)C(c1ccccc1)N1CCCCC1 (stereo unspecified)
inactive: dose: 6.25 mg/kg/injection, schedule: Q01DX009 (ip), vehicle: Klucel (hydroxypropylcellulose) (HPC) 109 % of control | dose: 12.5 mg/kg/injection, schedule: Q01DX009 (ip), vehicle: Klucel (hydroxypropylcellulose) (HPC) 95 % of control | dose: 25.0 mg/kg/injection, schedule: Q01DX009 (ip), vehicle: Klucel (hydroxypropylcellulose) (HPC) 95 % of control | dose: 25.0 mg/kg/injection, schedule: Q04DX003 (ip), vehicle: Klucel (hydroxypropylcellulose) (HPC) 104 % of control | dose: 50.0 mg/kg/injection, schedule: Q01DX009 (ip), vehicle: Klucel (hydroxypropylcellulose) (HPC) 91 % of control | dose: 50.0 mg/kg/injection, schedule: Q04DX003 (ip), vehicle: Klucel (hydroxypropylcellulose) (HPC) 104 % of control | dose: 100.0 mg/kg/injection, schedule: Q04DX003 (ip), vehicle: Klucel (hydroxypropylcellulose) (HPC) 108 % of control

CCN(CC)CCCCCNc1cc(Cl)c(Cl)cc1[N+](=O)[O-]
inactive: [4] 111 % of control | [8] 100 % of control

O=CNNS(=O)(=O)/C=C/c1ccccc1
inactive: dose: 12.5 mg/kg/injection, schedule: Q01DX009 (ip), vehicle: distilled water + Tween-80 106 % of control | dose: 25.0 mg/kg/injection, schedule: Q01DX009 (ip), vehicle: distilled water + Tween-80 105 % of control | dose: 50.0 mg/kg/injection, schedule: Q01DX009 (ip), vehicle: distilled water + Tween-80 102 % of control | dose: 100.0 mg/kg/injection, schedule: Q01DX009 (ip), vehicle: distilled water + Tween-80 89 % of control | dose: 200.0 mg/kg/injection, schedule: Q01DX009 (ip), vehicle: distilled water + Tween-80 89 % of control

c1ccn2c(CSCc3nnc4ccccn34)nnc2c1
inactive: [9] 100 % of control | [10] 109 % of control | [12] 109 % of control

O=C1c2sccc2-c2cccc3cccc1c23
inactive: [11] 96 % of control | dose: 100.0 mg/kg/injection, schedule: Q04DX003 (ip), vehicle: saline with Tween-80 93 % of control | dose: 200.0 mg/kg/injection, schedule: Q04DX003 (ip), vehicle: saline with Tween-80 94 % of control | dose: 400.0 mg/kg/injection, schedule: Q04DX003 (ip), vehicle: saline with Tween-80 86 % of control

CCOC(=O)CCc1nn(C)c2ccc(CC)cc2c1=O
inactive: [9] 101 % of control | [10] 92 % of control | [12] 90 % of control

O=C(O)c1ccc(C(Cl)(Cl)Cl)cc1
inactive: dose: 18.75 mg/kg/injection, schedule: Q01DX009 (ip), vehicle: Klucel (hydroxypropylcellulose) (HPC) 95 % of control | dose: 33.0 mg/kg/injection, schedule: Q01DX009 (ip), vehicle: saline with Tween-80 116 % of control | [9] 112 % of control | dose: 75.0 mg/kg/injection, schedule: Q01DX009 (ip), vehicle: saline with Tween-80 108 % of control | dose: 150.0 mg/kg/injection, schedule: Q01DX009 (ip), vehicle: saline with Tween-80 123 % of control

Cc1cc2nc(Oc3ccccc3)nc(=O)n2o1
inactive: [9] 100 % of control and 117 % of control | [10] 106 % of control and 123 % of control | [12] 112 % of control and 121 % of control

[Cl][Eu]([Cl])[Cl]
inactive: dose: 6.25 mg/kg/injection, schedule: Q01DX009 (ip), vehicle: saline 98 % of control | dose: 12.5 mg/kg/injection, schedule: Q01DX009 (ip), vehicle: saline 100 % of control | [3] 92 % of control | [4] 96 % of control
